Results taken from US10787448B2, “Indolizino [3,2-C] quinoline-based fluorescent probe” (SEOUL NATIONAL UNIVERSITY R & DB FOUNDATION, priority 2015, dated 2020).
pKd: −log10 of the molar value. Entries after “also recorded” stand apart in the source; their conditions may differ.

Columns and labels:
[1] = Analysis of optical characteristics (absorption, fluorescence emission, quantum yield) in solvents; assay type: physicochemical; settings: for Fluorescence Emission Intensity / Peak emission wavelength λmax em(nm) / Relative fluorescence Emission Intensitynorm: H2O at 2 μM; for Peak emission wavelength λmax em(nm): excited at the longest absorption maxima; for Relative fluorescence Emission Intensitynorm: normalized fluorescence intensity; for Fluorescence quantum yield (Φ): Rhodamine 6G as a standard (Φ = 0.86 in water)
Summary of the method: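 Optical properties of indolizinoquinoline compounds were examined in solvents. A 10 mM DMSO stock was diluted into the solvent, and fluorescence emission spectra were recorded at 20° C. on a JASCO FP-6500 spectrofluorometer. Absorption spectra were taken at room temperature on a Perkin Elmer Lamda 20 UV/VIS spectrometer. Fluorescence quantum yield (Φ) was determined.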

[2] = Photostability of fluorescence in aqueous solution or ethanol (natural light, blue light); assay type: physicochemical; settings: aqueous solution
Description: As a candidate material that can be applied to a fluorescent probe, to confirm how long fluorescence persists in materials with high fluorescence intensity in an aqueous solution among the indolizino[3,2-c]quinoline compounds, photostability according to time in an aqueous solution or ethanol solvent was evaluated as follows.
First, fluorescence of a corresponding material was measured using a cuvette, and the fluorescence per time for the cuvette sample was remeasured until 6 to 7 hours in a natural light state so as to confirm fluorescence stability.
Further, from the above example, when the indolizino[3,2-c]quinoline compounds including the IQ 3, 4, 6 and 8 compounds in which the fluorescence is stably maintained in an aqueous solution for approximately 6 hours are represented by Formula X, some materials in which neither A, B, C nor D ring has a substituent were selected and irradiated with blue light in an aqueous solution, and then a stability experiment was carried out to confirm the maintenance of the fluorescence.

HeLa cells = assay: Cell permeability: fluorescence imaging and live cell confocal imaging; assay type: cell-based; settings: HeLa cells
Description: HeLa cells were seeded in a 96-well plate and incubated for 24 hours. The cells were treated with the indolizino[3,2-c]quinoline compounds, and incubated at 37° C. under a 5% CO2 condition for 30 minutes. After removal of the medium, the cells were washed with 1×DPBS. The washed cells were fixed with 4% formaldehyde at room temperature for 10 minutes, and washed with 1×DPBS. A cell image was screened using an Operetta HTS imaging system (PerkinElmer).
After HeLa cells were seeded to account for 70 to 80% of the area of a confocal dish (SPL life science) and overnight cultured, the indolizino[3,2-c]quinoline compounds (10 μM) prepared by mixing fresh DMEM after removal of the existing DMEM medium were dispensed, and the cells were incubated for 30 minutes to 1 hour at 37° C. Afterward, if needed, LysoTracker (50 nM) was mixed with DMEM to remove the existing medium and then dispensed to the cells, and the cells were incubated for 30 minutes at 37° C. After incubation, without washing, the cells were examined by a confocal laser microscope (Leica TCS SP8 SMD, Leica, Mannheim, Germany). However, when co-stained with a LysoTracker, the cells were washed with DPBS twice before the microscopy. […]

cells = assay: Co-staining / co-localization with DAPI, MitoTracker or LysoTracker; assay type: cell-based; settings: for organelle selectivity by co-localization: MitoTracker or LysoTracker
[3] = target: Human Serum Albumin (HSA) (Homo sapiens, UniProt P02768); assay: Protein binding by fluorescence change (FRET, Job's plot, titration, quantum yield)
Chain of Human Serum Albumin (HSA) (P02768 25-609): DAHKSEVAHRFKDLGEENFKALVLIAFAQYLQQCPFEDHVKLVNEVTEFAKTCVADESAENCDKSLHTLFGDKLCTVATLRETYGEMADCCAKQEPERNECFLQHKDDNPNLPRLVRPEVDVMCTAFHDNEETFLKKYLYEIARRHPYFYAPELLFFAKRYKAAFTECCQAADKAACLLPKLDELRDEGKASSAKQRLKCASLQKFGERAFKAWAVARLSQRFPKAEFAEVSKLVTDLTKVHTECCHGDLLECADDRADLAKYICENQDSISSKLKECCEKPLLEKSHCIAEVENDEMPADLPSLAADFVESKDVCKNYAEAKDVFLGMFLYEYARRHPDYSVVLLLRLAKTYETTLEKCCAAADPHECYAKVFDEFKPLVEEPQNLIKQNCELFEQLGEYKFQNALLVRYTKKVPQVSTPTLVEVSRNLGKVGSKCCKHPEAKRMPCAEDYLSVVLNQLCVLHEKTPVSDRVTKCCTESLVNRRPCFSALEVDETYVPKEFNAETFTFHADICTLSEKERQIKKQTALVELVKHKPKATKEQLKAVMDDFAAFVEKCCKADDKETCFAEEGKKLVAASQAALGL
Description: Using a fluorescence spectrophotometer, it was confirmed whether the indolizino[3,2-c]quinoline compound of the present invention binds to a protein. Specifically, among the indolizino[3,2-c]quinoline compounds, 13 types of compounds with high fluorescence in a Tris buffer (pH 7.5) were added to Bovine Serum Albumin (BSA) and Human Serum Albumin (HSA) to observe a fluorescence change.

[4] = tested on: DNA oligomers (48 bp) tetO sequences; assay: Binding to DNA by fluorescence spectrophotometer; settings: hybridized tetO DNA oligomers added, 1 minute incubation
Description: Using a fluorescence spectrophotometer, it was confirmed whether the indolizino[3,2-c]quinoline compound of the present invention binds to DNA. First, DNA oligomers (48 bp) used in the experiment are tetO sequences, and the base sequences thereof are as follows.
The same molarities of oligomers were mixed while being heated at 95° C. for 5 minutes and cooled to room temperature for 2 hours to hybridize, the fluorescence of each of the indolizino[3,2-c]quinoline compounds of the present invention was measured, a corresponding equivalent of DNA oligomer was added to a cuvette, and then incubated while blocking light for 1 minute to measure fluorescence again.

PDEδ [5] = target: T1, PDEδ (Homo sapiens, UniProt O43924); assay: Titration using fluorescence polarization; assay type: binding; settings: 0.5 μM compound, PDEδ protein from 0 to 32 μM
T1 construct: made in house; host or cells: E. coli
T1 sequence (O43924 whole entry): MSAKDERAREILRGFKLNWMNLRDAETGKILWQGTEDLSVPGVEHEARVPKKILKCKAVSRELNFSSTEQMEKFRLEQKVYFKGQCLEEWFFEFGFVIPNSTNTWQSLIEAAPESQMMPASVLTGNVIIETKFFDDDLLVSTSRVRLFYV
Description: To confirm whether the indolizino[3,2-c]quinoline compound can bind to a specific intracellular protein, in the presence of 0.5 μM of the indolizino[3,2-c]quinoline compound, titration was performed by increasing the concentration of the PDEδ protein from 0 to 32 μM to measure a polarization degree.

PDEδ [6] = target: T1, PDEδ; assay: Titration using fluorescence polarization; assay type: binding; settings: Table 9

SMILES: COc1ccc(-c2nc3ccccc3c3cc4ccccn4c23)cc1 [IQ 6, 6-(4-methoxyphenyl)indolizino[3,2-c]quinoline]
- solvent-dependent (environment-sensitive) tendency of the emission [1]: solvatochromic effect
- peak emission (λmax) ([1]; ethanol solvent (EtOH)): 511 nm
- quantum yield ([1]; in ethanol using coumarin 153 as a standard): 0.816
- stability of fluorescence under irradiation with blue light ([2]; blue light for 2 hours): still stably exhibited fluorescence intensity
- photostability: fluorescence over time ([2]; natural light, up to 6 hours): stably maintained in an aqueous solution up to 6 hours with almost no change
- intracellular molecule recognized (HeLa cells): recognized intracellular RNA
- intracellular organelles in which fluorescence is detected (HeLa cells): intensively distributed in cytoplasmic and nucleolus areas
- staining pattern compared with conventional dyes (cells): an aspect similar to RNA select for staining RNA

SMILES: COc1cc(OC)cc(-c2nc3ccccc3c3cc4c(C)cccn4c23)c1 [IQ 16, 6-(3,5-dimethoxyphenyl)-11-methylindolizino[3,2-c]quinoline]
- fluorescence change on binding to HSA [3]: increasing fluorescence intensity
- intracellular molecule recognized (HeLa cells): recognized DNA
- intracellular organelles in which fluorescence is detected (HeLa cells): stained intensively in the nuclear area
- staining pattern compared with conventional dyes (cells): staining almost similar to DAPI

SMILES: Cc1cccn2c1cc1c3ccccc3nc(-c3ccco3)c12 [IQ 18, 6-(furan-2-yl)-11-methylindolizino[3,2-c]quinoline]
- change in fluorescence intensity on addition of DNA oligomer [4]: gradually decreased
- shift of maximum emission wavelength on addition of DNA oligomer [4]: shorter wavelength
- intracellular organelles in which fluorescence is detected (HeLa cells): distributed in the mitochondria
- fluorescence change on light irradiation (cells): increasing fluorescence by receiving light; also recorded: fluorescence is increased
- organelle selectivity by co-localization (cells): selectively stains the mitochondria
- Pearson's coefficient (cells; co-localization experiment with MitoTracker): ≥ 0.8

SMILES: COc1ccc(-c2nc3ccccc3c3cc4cc(/C=C/c5ccccc5)ccn4c23)cc1 [IQ-B19, (E)-6-(4-methoxyphenyl)-10-styrylindolizino[3,2-c]quinoline]
- fluorescence (intensity, in words) [1]: high fluorescence in other solvents as well as an aqueous solution
- organelle selectivity by co-localization (cells): selectively present in the lysosome

SMILES: Brc1ccc(-c2nc3ccccc3c3cc4ccccn4c23)cc1 [compound 1]
- Maximum absorption wavelength λmax abs(nm) [1]: 400 nm
- quantum yield (Φ) ([1]; DW, standard Rhodamine 6G): 0.015
- quantum yield (Φ) ([1]; EtOH, standard Coumarin 153): 0.636
- Fluorescence Emission Intensity [1]: 32.7
- Peak emission wavelength λmax em(nm) [1]: 522 nm
- Relative fluorescence Emission Intensitynorm [1]: 0.14
- pKd (PDEδ [5]): 6.55
- kmax em(nm) (PDEδ [6]): 530 nm
- λabs(nm) (PDEδ [6]): 430 nm

SMILES: Cc1ccc(-c2nc3ccccc3c3cc4ccccn4c23)cc1 [compound 3]
- quantum yield (Φ) ([1]; DW, standard Rhodamine 6G): 0.068
- quantum yield (Φ) ([1]; EtOH, standard Coumarin 153): 0.839
- Fluorescence Emission Intensity [1]: 59.7
- Peak emission wavelength λmax em(nm) [1]: 519 nm
- Relative fluorescence Emission Intensitynorm [1]: 0.26
- change in fluorescence intensity on addition of DNA oligomer [4]: Decrease in fluorescence intensity
- pKd (PDEδ [5]): 6.31
- kmax em(nm) (PDEδ [6]): 526 nm
- λabs(nm) (PDEδ [6]): 440 nm

SMILES: c1ccc(-c2nc3ccccc3c3cc4ccccn4c23)cc1 [compound 4]
- quantum yield (Φ) ([1]; DW, standard Rhodamine 6G): 0.039
- quantum yield (Φ) ([1]; EtOH, standard Coumarin 153): 0.779
- Fluorescence Emission Intensity [1]: 55.0
- Peak emission wavelength λmax em(nm) [1]: 519 nm
- Relative fluorescence Emission Intensitynorm [1]: 0.24
- change in fluorescence intensity on addition of DNA oligomer [4]: Decrease in fluorescence intensity
- pKd (PDEδ [5]): 6.30
- kmax em(nm) (PDEδ [6]): 515 nm
- λabs(nm) (PDEδ [6]): 430 nm

SMILES: COc1ccc(-c2nc3ccccc3c3cc4ccccn4c23)cc1 [compound 6]
- Absorption coefficient (cm^−1M^−1) [1]: 6547 cm^−1M^−1
- Absorption wavelength λex(nm) [1]: 430 nm
- Emission wavelength λem(nm) [1]: 515 nm
- Maximum absorption wavelength λmax abs(nm) [1]: 430 nm
- λem (nm) ([1]; DMF): 469 nm
- λem (nm) ([1]; DMSO): 512 nm
- λem (nm) ([1]; EtOH): 465 nm
- λem (nm) ([1]; EtOH:CHCl3 = 1:5): 466 nm
- λem (nm) ([1]; H2O): 511 nm
- Fluorescence Emission Intensity [1]: 231.3
- Peak emission wavelength λmax em(nm) [1]: 514.5 nm
- λem (nm) ([1]; MC): 467 nm
- Fluorescence quantum yield (Φ) [1]: 0.121
- Relative fluorescence Emission Intensitynorm [1]: 0.99
- shift of maximum emission wavelength on addition of DNA oligomer [4]: wavelength to longer wavelength
- pKd (PDEδ [5]): 6.14
- kmax em(nm) (PDEδ [6]): 515 nm
- λabs(nm) (PDEδ [6]): 430 nm

SMILES: COc1ccc(-c2nc3ccccc3c3cc4ccccn4c23)cc1OC [compound 8]
- quantum yield (Φ) ([1]; DW, standard Rhodamine 6G): 0.102
- quantum yield (Φ) ([1]; EtOH, standard Coumarin 153): 0.652
- Fluorescence Emission Intensity [1]: 171.3
- Peak emission wavelength λmax em(nm) [1]: 513 nm
- Relative fluorescence Emission Intensitynorm [1]: 0.74
- shift of maximum emission wavelength on addition of DNA oligomer [4]: wavelength to longer wavelength
- pKd (PDEδ [5]): 5.89
- kmax em(nm) (PDEδ [6]): 515 nm
- λabs(nm) (PDEδ [6]): 430 nm

SMILES: c1ccc2c(-c3nc4ccccc4c4cc5ccccn5c34)cccc2c1 [compound 9]
- Absorption coefficient (cm^−1M^−1) [1]: 11656 cm^−1M^−1
- Absorption wavelength λex(nm) [1]: 405 nm
- Emission wavelength λem(nm) [1]: 515 nm
- λem (nm) ([1]; DMF): 478 nm
- λem (nm) ([1]; DMSO): 514 nm
- λem (nm) ([1]; EtOH): 465.5 nm
- λem (nm) ([1]; EtOH:CHCl3 = 1:5): 467.5 nm
- λem (nm) ([1]; H2O): 516 nm
- Fluorescence Emission Intensity [1]: 232.9
- Peak emission wavelength λmax em(nm) [1]: 514 nm
- λem (nm) ([1]; MC): 469 nm
- Fluorescence quantum yield (Φ) [1]: 0.053
- Relative fluorescence Emission Intensitynorm [1]: 1.00
- pKd (PDEδ [5]): 5.81
- kmax em(nm) (PDEδ [6]): 515 nm
- λabs(nm) (PDEδ [6]): 430 nm

SMILES: c1coc(-c2nc3ccccc3c3cc4ccccn4c23)c1 [compound 42]
- pKd (PDEδ [5]): 6.37
